Source: patent US20120201902A1, “ANTIMICROBIAL/PRESERVATIVE COMPOSITIONS COMPRISING BOTANICALS” (The Trustees of Columbia University in the City of New York, priority 2009, published 2012)

Tests used:
[1] = test system: Aspergillus niger; experiment: Preservative efficacy in cream (Method 1), Aspergillus niger; assay type: cell-based; conditions: for efficacy of solvent added to GSE, lemongrass oil and lactic acid: against A. niger
[2] = test system: S. aureus; experiment: In vitro rapid (15 seconds) antibacterial activity (Method A), S. aureus; assay type: cell-based
Procedure: Method A: 0.8 ml of a test solution was mixed with 0.1 ml of bacterial culture (10^8 cfu/ml) and 0.1 ml of bovine serum and vortexed for 15 seconds. 9 ml of drug neutralizing Fluid (DNF) was then added and serially diluted with DNF and plated on trypticase soy agar (TSA) plates. The plates were incubated for 24-48 hours at 37° C., and colony counts were determined. For a control, a gel base was used alone. The gel base (Base 26) contains 0.2% hydroxymethylpropyl cellulose and 0.2% polyquaternium10, and 0.5% 1,3 propanediol in water.
The present example evaluates rapid (15 seconds) antibacterial activity of various agents, alone and in combination, in an aqueous gel base (Base 26) using S. aureus as the test organism. One method of testing (Method A) uses 0.8 ml of the test solution mixed with 0.1 ml of bacterial culture (10^8 cfu/ml) and 0.1 ml of Bovine serum. The solution is vortexed for 15 seconds. 9.0 ml of drug neutralizing Fluid (DNF) is then added and then serially diluted with DNF and plated on TSA plates. Plates are incubated for 24-48 hours at 37° C. and colony counts were determined. For A control, the base was used alone.

[3] = test system: S. aureus; experiment: Synergistic antibacterial activity of benzyl alcohol and citrus fruit extract in proteinaceous media (1 minute); assay type: cell-based; conditions: 2.0 % w/w, media 50% TSB and 50% bovine serum
Procedure: Citrus fruit extract was obtained from PL Thomas (BiosecurF440D organic citrus fruit extract concentrate). The following concentrations of compounds were added to S. aureus culture (10^8 cfu/ml of media containing 50% TSB and 50% bovine serum). After 1 minute, drug neutralizing fluid (DNF) was added and mixed. The samples were then serially diluted with DNF and plated in TSA plate. The plates were incubated for 24-48 hours at 37° C. and colony counts were determined.

[4] = test system: C. albicans; experiment: Preservative efficacy in cream (Method 1), C. albicans; assay type: cell-based, Candida albicans; conditions: for Efficacy (log10 reduction from control growth) C. albicans: Table 67
[5] = test system: S. aureus; conditions: erythromycin, gentamicin, vancomycin, ciproflaxin, clindamycin, tetracycline; cited from earlier work
[6] = test system: C. albicans; experiment: Efficacy of antifungal creams in pig skin method (Method D), loosely and tightly adhered organism; assay type: cell-based, Candida albicans; conditions: conclusion of Example 31 (Methods C, D, E)
Procedure: Method D: Evaluation of efficacy in pig skin method (test organism C. albicans). […] At the end of incubation, DNF (drug neutralizing fluid) was added to each piece, mixed to remove the cream and loosely adhered bacteria on the skin. Loosely adhered organism: The fluid containing the cream was removed, serially diluted with DNF and aliquots plated on TSA and incubated for 24-48 hours and colonies were counted. Tightly adhered organism: DNF was added to the rinsed pigskin and sonicated for 20 minutes to remove the tightly adhered bacteria. The fluid after sonication was serially diluted, plated on TSA and, incubate for 24-48 hours and colony counts were determined.

[7] = test system: S. aureus; experiment: In vitro rapid (15 seconds) efficacy of hand disinfectant soap (Method A with 10^9 organism); assay type: cell-based
From the text: The method of testing is same method as described above as Method A, however using 10^9 organism instead 10^8.

[8] = test system: S. aureus; experiment: In vitro rapid (15 second) efficacy of surface disinfectants; assay type: cell-based; conditions: surfactant base
Procedure: The following ingredients were added in a surfactant base containing water and alkyl polyglycoside surfactant (Glucopon) (Table 125).
Table 126 provides the dadta for an in vitro rapid (15 second) antibacterial efficacy of surface disinfectants against S. aureus.
The following ingredients were added in a surfactant base containing water and alkyl polyglycoside surfactant (Glucopon) (Table 127).
Table 128 provides the results from an in vitro rapid (15 second) antibacterial efficacy of surface disinfectants against S. aureus.

[9] = cited from earlier work
[10] = Table 106, 3.0 % w/w in Base 26, 15 seconds
[11] = Table 106, 0.5 % w/w in Base 26, 15 seconds
[12] = Table 106, 2.0 % w/w in Base 26, 15 seconds
[13] = Table 107, 2.0 % w/w, 15 seconds
[14] = Table 106, 0.2 % w/w in Base 26, 15 seconds

OCCCO [1,3 propanediol]
synergistic efficacy of benzyl alcohol and GSE, with and without 1,3 propanediol ([1]; 1-2% preservative in hydrophilic cream base, pH 4.5-5.0, tested against Aspergillus niger and C. albicans): enhances the activity | log10 reduction [2, 10]: 0.2 log10

OCc1ccccc1 [Benzyl alcohol, benzyl alcohol]
Antibacterial activity against S. Aureus (10^8 CFU/ml) log10 reduction [3]: 0.1 log10 | synergistic activity with the combination of GSE, lemongrass oil, and lactic acid ([1]; Example 5, organism not given): synergistic activity | Efficacy (log10 reduction from control growth) A. niger ([1]; Table 67, 0.5 % w/w in cream): 1.0 log10 | Efficacy (log10 reduction from control growth) A. niger ([1]; Table 67, 1.0 % w/w in cream): 1.9 log10 | efficacy of solvent added to GSE, lemongrass oil and lactic acid [1]: higher efficacy | log10 reduction [2, 11]: 0.13 log10 | log10 reduction ([2]; Table 106, 1.0 % w/w in Base 26, 15 seconds): 0.14 log10 | log10 reduction [2, 12]: 0.18 log10 | log10 reduction [2, 10]: 0.2 log10 | log10 reduction [2, 13]: 0.12 log10 | synergistic activity with citric and lactic acid ([2]; benzyl alcohol at 1% and more than 1%, Base 26, 15 seconds): synergistic activity | activity along with fruit acid without any botanical extracts ([2]; benzyl alcohol at higher concentrations, 15 seconds): effective | Efficacy (log10 reduction from control growth) C. albicans ([4]; 0.5 % w/w in cream): 1.0 log10 | Efficacy (log10 reduction from control growth) C. albicans ([4]; 1.0 % w/w in cream): 2.7 log10 | efficacy of solvent added to GSE, lemongrass oil and lactic acid ([4]; against C. albicans): higher efficacy | synergistic activity with Zemea ([4]; higher concentrations of benzyl alcohol, against C. albicans): synergistic activity

N=C(NCCCCCCNC(=N)NC(=N)Nc1ccc(Cl)cc1)NC(=N)Nc1ccc(Cl)cc1.O=C(O)[C@H](O)[C@@H](O)[C@H](O)[C@H](O)CO.O=C(O)[C@H](O)[C@@H](O)[C@H](O)[C@H](O)CO [Chlorhexidine gluconate]
log10 reduction [2, 11]: 2.4 log10

N=C(NCCCCCCNC(=N)NC(=N)Nc1ccc(Cl)cc1)NC(=N)Nc1ccc(Cl)cc1.O=C(O)[C@H](O)[C@@H](O)[C@H](O)[C@H](O)CO.O=C(O)[C@H](O)[C@@H](O)[C@H](O)[C@H](O)CO [Chlorhexidine gluconte]
log10 reduction [2, 14]: 1.43 log10

O=C(O)CC(O)(CC(=O)O)C(=O)O [Citric acid]
log10 reduction [2, 14]: 0.1 log10

OCc1ccccc1 [Preservative 2]
Efficacy (log10 reduction from control growth) A. niger ([1]; Table 59, preservative in hydrophilic cream base, pH 4.5-5.0, benzyl alcohol (natural), GSE, Zemea, control growth 1 × 10^4-5 × 10^4): 0.98 log10

CCCCC(CC)COCC(O)CO (centres unmarked) [Sensiva, Octoxyglycerin]
efficacy of solvent added to GSE, lemongrass oil and lactic acid [1]: not against A. niger | efficacy of solvent added to GSE, lemongrass oil and lactic acid ([4]; against C. albicans): effective against C. albicans

OCCCO [Zemea ®]
Efficacy (log10 reduction from control growth) A. niger ([1]; Table 67, 0.5 % w/w in cream): 0.85 log10 | Efficacy (log10 reduction from control growth) C. albicans ([4]; 0.5 % w/w in cream): 0.5 log10

CC(C)=CCC/C(C)=C/CC1CCCC1=O (centres unmarked) [apritone]
susceptibility of S. aureus to antibiotics [5]: enhanced the susceptibility

O=C1O[C@H]([C@@H](O)CO)C(O)=C1O [ascorbic acid]
synergistic activity of organic acids with benzyl alcohol [2]: not effective | log10 reduction [2, 13]: 0.1 log10

O=C(O)c1ccccc1 [benzoic acid]
synergistic activity of organic acids with benzyl alcohol [2]: synergistic activity | log10 reduction [2, 13]: 0.1 log10

CC(C)=CCC[C@](C)(O)C1CC=C(C)CC1 (some centres unmarked) [bisabolol]
susceptibility of S. aureus to antibiotics [5]: enhanced the susceptibility

[H]/N=C(\N/C(=N/[H])NCCCCCCNC(=N)NC(=N)Nc1ccc(Cl)cc1)Nc1ccc(Cl)cc1 [chlorhexidine, reference compound]
synergistic activity with benzyl alcohol and fruit acids ([2]; Base 26, 15 seconds): synergistic activity

CC(C)=CCCC(C)=CCCC(C)=CCO [farnesol]
susceptibility of S. aureus to antibiotics [5]: enhanced the susceptibility

CC(O)C(=O)O (centres unmarked) [lactic acid]
synergistic activity of organic acids with benzyl alcohol [2]: synergistic activity | log10 reduction [2, 14]: 0.1 log10 | log10 reduction [2, 12]: 0.11 log10 | log10 reduction [2, 13]: 0.11 log10

Clc1ccc(COC(Cn2ccnc2)c2ccc(Cl)cc2Cl)c(Cl)c1 (centres unmarked) [miconazole]
antifungal activity with synergistic combination of benzyl alcohol, fruit acid, biguanide and benzalkonium chloride [6]: significantly enhanced

C=CC(C)(O)CCC=C(C)CCC=C(C)C (centres unmarked) [nerolidol]
susceptibility of S. aureus to antibiotics [5]: enhanced the susceptibility

Oc1cc(Cl)ccc1Oc1ccc(Cl)cc1Cl [triclosan]
synergistic action with BPC (benzyl alcohol, propanediol, citric acid) [7]: synergistic action

(polyiminoimidocarbonyliminoimidocarbonyl-iminohexamethylene)hydro-chloride [Vantocil]
synergistic activity with benzyl alcohol and fruit acids [8]: synergistic activity | synergistic activity with benzyl alcohol and lactic acid [8]: synergistic activity

benzalkonium chloride [reference compound]
synergistic action with BPC (benzyl alcohol, propanediol, citric acid) [7]: synergistic action | synergistic activity with benzyl alcohol and fruit acids ([2]; Base 26, 15 seconds): synergistic activity | log10 reduction ([2]; Table 106, 0.1 % w/w in Base 26, 15 seconds): 2.7 log10

zinc picolinate
water solubility (in words) [9]: moderately water soluble
